Measurements as given in patent US6365126B1, “Learning and short term memory defects with Neurofibromatosis 1 (NF1) expression” (Cold Spring Harbor Laboratory, priority 1997, dated 2002).
Read-outs that look alike come from different tables or passages of the source.

Tests used:
adenylyl cyclase = assay: Adenylyl cyclase activity assay, membrane fractions of adult brain tissues; format: biochemical, Drosophila; settings: GTPγS 20 μM
Protocol: The adenylyl cyclase activity assay described in Livingstone, M. S., Proc. Natl. Acad. Sci. USA, 82:5992-5996 (1985)) was modified as follows. The membrane fraction was extracted from either male heads with the cuticle removed to leave essentially brain tissue, or from 10 male abdomens. Twenty (20) dissected brains in 850 μl lysis buffer were homogenized, and the membrane fraction was extracted by centrifugation at 178,000 g for 10 minutes. GTPγS (final concentration, 20 μM) was added to stimulate G-protein activated adenylyl cyclase activity immediately after homogenization but before centrifugation. When assaying the basal level of adenylyl cyclase activity, GTPγS was not added. These modifications seemed to amplify the NF1 effect. Calcium concentrations were calculated according to MaxChelator v1.31 (Bers, D. M. et al., Methods. Cell. Biol., 40:3-29 (1994)). […] Biochemical assays provide direct evidence to support the electrophysiological data. Previous experiments have shown that Rut-AC expressed in a cell line can be stimulated not only by Ca^2+/calmodulin, but also by reagents that stimulate G-proteins, including GTPγS and AIF4^- (see Levin, L. R. et al., Cell, 68:479-489 (1992)). First, AC activity in membrane fractions of adult brain tissues was examined. […] Thus, GTPγS-stimulated AC activity consists of two components: one that is NF1-dependent and one that is NF1-independent.

[1] = test system: K^+ currents of body-wall muscle fibers; assay: Two-microelectrode voltage-clamp recording of PACAP38-induced responses, larval body-wall neuromuscular preparation; design: species or system Drosophila
Protocol: PACAP38-induced responses were recorded by the two-microelectrode voltage-clamp method from body-wall muscle fibers of larvae at the third instar (Zhong, Y., Nature, 375:588-592 (1995); Arimura, A. Regulatory Peptides, 37:287-303 (1992); Spengler, D. et al., Nature, 365:170-175 (1993); Jan, L. Y. et al., J. Physiol., 262:189-214 (1976); Wu, C.-F. et al., Science, 220:1076-1078 (1983); Stewart, B. A. et al., J. Comp. Physiol., 175:179-191 (1994)). Electrophysiological recording: The larval body-wall neuromuscular preparation has been described (Zhong, Y. et al., Neuron, 14:527-536 (1995); Zhong, Y., Nature, 375:588-592 (1995); Jan, L. Y. et al., J. Physiol., 262:189-214 (1976); Wu, C.-F. et al., Science, 220:1076-1078 (1983); Stewart, B. A. et al., J Comp Physiol., 175:179-191 (1994)). The setup, saline, recording conditions and voltage paradigms were as described (Zhong, Y. et al., Neuron, 14:527-536 (1995); Zhong, Y., Nature, 375:588-592 (1995)). For recording the PACAP38-induced synaptic current, the membrane potential was clamped at −80 mV. For recording K^+ currents, command voltages were stepped from the holding potential of −80 to −50 and +20 mV, respectively. […] PACAP38 was applied by pressure ejection through a glass electrode positioned near the voltage-clamped muscle membrane. Forskolin and cAMP analogs were applied to the solution bathing the preparation.

[2] = test system: K^+ currents of body-wall muscle fibers; settings: cited from earlier work

## Nc1nc2c(ncn2[C@@H]2O[C@H](COP(=O)(O)OP(=O)(O)OP(O)(O)=S)[C@@H](O)[C@H]2O)c(=O)[nH]1 [GTPγS]
Adenylyl cyclase; NF1^P1 and NF1^P2 mutant membranes
  GTPγS stimulated AC activity compared with control (K33): markedly reduced
Adenylyl cyclase; NF1 mutant membranes
  GTPγS-stimulated activity compared with the basal level: significant GTPγS-stimulated activity occurred above the basal level

## CCCC(=O)Nc1ncnc2c1ncn2[C@@H]1O[C@@H]2COP(=O)(O)O[C@H]2[C@H]1OC(=O)CCC [dibutyryl cAMP]
[1]; NF1 mutants (NF1^P2 homozygotes, NF1^P1/NF1^P2 larvae)
  effect of cAMP analog on the PACAP38 response: restore the normal response to PACAP38
[1]; wild-type larvae
  effect of cAMP analog on the PACAP38 response: appeared not to disrupt the PACAP38 response
[2]; larval neuromuscular preparation, no PACAP38
  PACAP38-like enhancement of K^+ currents by cAMP analog alone: insufficient

## PACAP38
[1]; Gap1 null mutants rI^533B1 and rI^533PB
  PACAP38-induced enhancement of K^+ currents: normal enhancement
[1]; NF1^P1 and NF1^P2 mutant larvae
  PACAP38-induced enhancement of K^+ currents: abolished
[1]; NF1^P1 and NF1^P2 mutant larvae, membrane potential clamped at -80 mV
  PACAP38-induced inward current: remained mostly intact
[2]; wild-type larvae, perfusion to the neuromuscular junction
  PACAP38-induced enhancement of K^+ currents: 100 fold
